Reference: publication PMC7614683, “A small molecule PI3Kα activator for cardioprotection and neuroregeneration” (Nature, 2023)

Legend:
A549 cells = test: Phosphoinositide quantification by mass spectrometry, A549; type: cell-based, human; conditions: A549, 2 min
Method: A549 cells (5.10^5) or wild-type MEFs (3.10^5) were plated in complete media onto 3.5 cm dishes or 60 mm dishes respectively for 24 h, prior to FCS-free starvation media for 16 h. MEFs, in addition, were supplemented with arachidonic acid in the FCS-free starvation media as previously described. […] Reactions were terminated in 600 μl ice-cold 1 M HCl and cells scraped and resuspended, then divided into two equal samples in eppendorfs. […] The data are shown as response ratios, calculated by normalizing the multiple reaction monitoring (MRM)-targeted lipid integrated response area to that of a known amount of relevant internal standard. To account for any cell input variability, PIP3 response ratios were normalized to C38:4-PI response ratios; while PI(3,4)P2 response ratios were normalised to PI(4,5)P2 response ratios. Data shown are mean ±SD for n ≥3, except for non-DMSO control in MEF PIP3 measurements where n=1.

PI3Kα-WT MEFs = test: Mass spectrometry-based phosphoproteomics, PI3Kα-WT MEFs; type: cell-based, mouse; conditions: for number of differentially phosphorylated peptides/sites relative to DMSO: 1938 5 μM or insulin 100 nM
Method: PI3Kα-WT and PI3Kα-KO MEFs, grown in 15 cm dishes, were serum-starved overnight in DMEM with 1% penicillin-streptomycin and stimulated by the addition of 0.05% DMSO, 5 μM 1938 in final 0.05% DMSO or 100 nM insulin (Sigma #I5016) for 15 min or 4 h. Cells were lysed in 500 μl urea lysis buffer [50 mM triethylammonium bicarbonate, 8 M urea, cOmplete™ EDTA-free protease inhibitor cocktail (1:50 dilution) (Roche #11873580001), 1 PhosSTOP tablet (Roche #4906845001) per 10 ml of lysis buffer, 1 mM sodium orthovanadate] and lysates sonicated until clear for ~10 min with cooling breaks on ice. Protein concentration was measured using a BCA protein assay (Pierce #23227). 300 μg of protein was reduced with 5 mM Tris(2-carboxyethyl)phosphine hydrochloride (Sigma #C4706) at 37°C for 20 min and alkylated using 10 mM 2-chloroacetamide (Sigma #22790) for 20 min at room temperature in the dark. Proteins were digested with LysC (#129-02541; FUJIFILM Wako Chemicals, Osaka, Japan) for 3.5 h at 30°C. Samples were then diluted with 50 mM triethylammonium bicarbonate (Sigma #T7408) to reduce the urea concentration to 1.5 M, followed by an overnight peptide digestion with trypsin (Promega #V5113) at 37°C. Digest reactions were quenched by the addition of 10% trifluoroacetic acid (EMD Millipore #302031-M) to a final pH of 2.0. Sample desalting was performed using 35-350 μg C18 columns (HMM S18V; The Nest Group, Inc., Southborough, MA, USA) according to the manufacturer’ specifications. TiO2 (Hichrome Titansphere TiO2, 10 μm capacity, 100 mg, GL Sciences #5020-75010) was used for phosphoenrichment. Following peptide loading onto TiO2, the beads were sequentially washed with 1 M glycolic acid (Sigma #124737)/80% acetonitrile/5% trifluoroacetic acid, followed by 80% acetonitrile/0.2% trifluoroacetic acid and 20% acetonitrile before elution with 5% ammonium hydroxide. Enriched samples were desalted using 7-70 μg C18 columns (HUM S18V; The Nest Group, Inc., Southborough, MA, USA) according to the manufacturer’s specifications. Dried phosphopeptide samples were stored at -80°C and resuspended in 10% formic acid immediately prior to analysis. nLC-MS/MS was performed on a Q-Exactive Orbitrap Plus interfaced to a NANOSPRAY FLEX ion source and coupled to an Easy-nLC 1000 (Thermo Scientific). Fifty percent of each sample was analysed as 10 μl injections. Peptides were separated on a 27 cm fused silica emitter, 75 μm diameter, packed in-house with Reprosil-Pur 200 C18-AQ, 2.4 μm resin (Dr. Maisch, Ammerbuch-Entringen, Germany) using a linear gradient from 5% to 30% acetonitrile/0.1% formic acid over 180 min, at a flow rate of 250 nl/min. Peptides were ionised by electrospray ionisation using 1.9 kV applied immediately prior to the analytical column via a microtee built into the nanospray source with the ion transfer tube heated to 320°C and the S-lens set to 60%. Precursor ions were measured in a data-dependent mode in the orbitrap analyser at a resolution of 70,000 and a target value of 3e6 ions. The ten most intense ions from each MS1 scan were isolated, fragmented in the HCD cell, and measured in the Orbitrap at a resolution of 17,500.
Raw data were analysed with MaxQuant[72] (version 1.5.5.1) where they were searched against the mouse UniProt database (http://www.uniprot.org/, downloaded 04/12/2018) using default settings. Carbamidomethylation of cysteines was set as fixed modification, and oxidation of methionines, acetylation at protein N-termini, phosphorylation (on S, T or Y) were set as variable modifications. Enzyme specificity was set to trypsin with maximally 2 missed cleavages allowed. To ensure high confidence identifications, peptide-spectral matches, peptides, and proteins were filtered at a less than 1% false discovery rate (FDR). Label-free quantification in MaxQuant was used with a LFQ minimum ratio count of 2, Fast LFQ selected and the ‘skip normalisation’ option selected. […]

Compound	concentration at which the PIP3 response maxed out (A549 cells) [µM]	number of differentially phosphorylated peptides/sites relative to DMSO (PI3Kα-WT MEFs; 15 min)	number of differentially phosphorylated peptides/sites relative to DMSO (PI3Kα-WT MEFs; 4h)	log2FC, PI3Ka WT 4 h 1938 vs PI3Ka WT DMSO (PI3Kα-WT MEFs; phosphosite Cask_S544)	log2FC, PI3Ka WT 15’ 1938 vs PI3Ka WT DMSO (PI3Kα-WT MEFs; phosphosite Cask_S545)	log2FC, PI3Ka WT 4 h 1938 vs PI3Ka WT DMSO (PI3Kα-WT MEFs; phosphosite Cask_S545)	log2FC, PI3Ka WT 15’ 1938 vs PI3Ka WT DMSO (PI3Kα-WT MEFs; phosphosite Gm42715_S1683)	log2FC, PI3Ka WT 4 h 1938 vs PI3Ka WT DMSO (PI3Kα-WT MEFs; phosphosite Gm42715_S1683)	PIP3 response (A549 cells)	log2FC, PI3Ka WT 15’ Insulin vs PI3Ka WT DMSO (PI3Kα-WT MEFs; phosphosite Cask_S545)	log2FC, PI3Ka WT 4 h Insulin vs PI3Ka WT DMSO (PI3Kα-WT MEFs; phosphosite Cask_S545)	log2FC, PI3Ka WT 15’ Insulin vs PI3Ka WT DMSO (PI3Kα-WT MEFs; phosphosite Gm42715_S1683)	log2FC, PI3Ka WT 4 h Insulin vs PI3Ka WT DMSO (PI3Kα-WT MEFs; phosphosite Gm42715_S1683)
CCN1CCN(c2ccc(Nc3cc(Nc4cccc5c4N(C(C)=O)CC5)ccn3)cc2)CC1 [Compound 1938]	10	27	50	Inf	-0.1674	-0.01008	1.032	0.9181					
insulin: insulin, canonical activator of PI3Kα, used as positive control		11	18						strong PIP3 response	-0.06497	-0.07238	0.5546	1.083
